Reference: publication PMC9503778, “Targeted Isolation of Antibiotic Brominated Alkaloids from the Marine Sponge Pseudoceratina durissima Using Virtual Screening and Molecular Networking” (Marine Drugs, 2022)
In brackets after ≈: the same amount, converted by molar mass. Several values for one entry are separate records, joined by “and”; a condition that tells them apart may be missing. Equal values may be shown once. Read-outs that look alike come from different tables or passages of the source.

Experiments:
human red blood cells = assay: Haemolysis assay (CO-ADD); assay type: cell-based
[1] = system: K. pneumoniae (G-) strain ATCC 700603; assay: Antimicrobial growth inhibition (CO-ADD), K. pneumoniae; assay type: cell-based, Klebsiella pneumoniae; details: for % inhibition K. pneumoniae: 32 µg/mL; for % inhibition K. pneumoniae / inhibition at 32 µg/mL: duplicate (n = 2) values; for MIC / inhibition at 32 µg/mL: Klebsiella pneumoniae; for MIC: ATCC700603, read-out: MIC K. pneumoniae; for inhibition at 32 µg/mL: ATCC700603, 32 µg/mL, read-out: % inhibition K. pneumoniae
Procedure: (§1) Compounds 1−3 and 5−12 were assayed against a selection of medically important pathogenic microorganisms (MRSA, E. coli, K. pneumoniae, A. baumanii, P. aeruginosa, C. albicans, C. neoformans), Table 4. […] To the best of our knowledge this compound had not been tested against any drug resistant strain of Gram-positive bacterium until this study.
(§2) The antimicrobial activity testing was performed by the Community for Antimicrobial Drug Discovery (CO-ADD). Compounds were assayed against a range of both Gram negative and Gram positive bacteria (see Supplementary Materials S3) including methicillin-resistant Staphylococcus aureus (MRSA) (G+), Escherichia coli (G-), Klebsiella pneumoniae (G-), Acinetobacter baumannii (G-), Pseudomonas aeruginosa (G-) together with two species of fungus (Candida albicans and Cryptococcus neoformans).
(§3) S3. Antimicrobial activity testing methodology
(§4) The compounds submitted to CO-ADD were evaluated in duplicate (n = 2) against seven microorganisms (five bacteria and two fungi) at a concentration of 32 µg/mL in a 384-well, non-binding surface plate (NBS) for each bacterial/fungal strain, keeping the final DMSO concentration to a maximum of 1% DMSO. All bacteria were cultured in cation-adjusted Mueller-Hinton broth (CAMHB) at 37 °C overnight. A sample of each culture was then diluted 40-fold in fresh broth and incubated at 37 °C for 1.5-3 h. The resultant mid-log phase cultures were diluted (CFU/mL measured by OD600), then added to each well of the compound containing plates, giving a cell density of 5x10^5 CFU/mL and a total volume of 50 µL. All the plates were covered and incubated at 37 °C for 18 h without shaking. […] Inhibition of bacterial growth was determined measuring absorbance at 600 nm (OD600) using a Tecan M1000 Pro mon-ochromator plate reader. […]
(§5) 2 h. The absorbance was measured using a Biotek Synergy HTX plate reader. The percentage of growth inhibition was calculated for each well, using negative control (medium only) and positive control (bacteria without inhibitors) on the same plate as the references. The significance of inhibition values was determined by modified Z-scores, calculated using the median and MAD of the samples (no controls) on the same plate. Samples with inhibition value above 80% and Z-score above 2.5 for either replicate (n = 2 on different plates) were classed as actives.
(§6) Colistin and vancomycin were used as positive bacterial inhibitor standards for Gram-negative and Gram-positive bac-teria, respectively. Fluconazole was used as a positive fungal inhibitor standard for C. albicans and C. neoformans. The antibiotics were provided in four concentrations, with two above and two below its MIC value, and plated into the first eight wells of column 23 of the 384-well NBS plates. The quality control (QC) of the assays was determined by the antimicrobial controls and the Z’-factor (using positive and negative controls). Each plate was deemed to fulfil the qual- […]
(§7) full growth inhibition at their highest concentration, and no growth inhibition at their lowest concentration. The seven […]
(§8) test microorganisms were Staphylococcus aureus MRSA (ATCC 43300), Escherichia coli (ATCC 25922), Klebsiella pneu-moniae (ATCC 700603), Acinetobacter baumanii (ATCC19606), Pseudomonas aeruginosa (ATCC 27853), Candida albicans (ATCC 90028) and Cryptococcus neoformans var. grubii (H99; ATCC 208821).
(§9) S4. Anthelmintic activity testing methodology
(§10) Dose-response evaluations were carried out to estimate the half-maximal inhibitory concentrations (IC50 values) for compounds against Haemonchus contortus (Haecon-5 strain) exsheathed third-stage larvae (xL3s). H. contortus were maintained in experimental sheep and procured in accordance with the institutional animal ethics guidelines and the regulations of Australia (permit no. 1714374; University of Melbourne). Immediately prior to use, third-stage larvae (L3s) were exsheathed and sterilised by incubation in 0.15% (v/v) bleach at 38 °C for 20 min, followed by washes in […]

[2] = system: C. albicans (yeast) ATCC 90028; assay: Antimicrobial growth inhibition (CO-ADD), C. albicans; assay type: cell-based, Candida albicans; details: Candida albicans, ATCC90028; ATCC 90028; read-out: MIC C. albicans
Procedure: as §1, §2, §3
(§11) The compounds submitted to CO-ADD were evaluated in duplicate (n = 2) against seven microorganisms (five bacteria and two fungi) at a concentration of 32 µg/mL in a 384-well, non-binding surface plate (NBS) for each bacterial/fungal strain, keeping the final DMSO concentration to a maximum of 1% DMSO. All bacteria were cultured in cation-adjusted […]
(§12) Fungal strains were cultured for 3 days on Yeast Extract-Peptone Dextrose (YPD) agar at 30 °C. A yeast suspension of 1 x 10^6 to 5 x 10^6 CFU/mL (as determined by OD530) was prepared from five colonies. The suspension was subsequently diluted and added to each well of the compound-containing plates giving a final cell density of fungi suspension of 2.5 x 10^3 CFU/mL and a total volume of 50 µL. All plates were covered and incubated at 35 °C for 24 h without shaking. […]
as §5, §6, §7, §8, §9
Dose-response evaluations were carried out to estimate the half-maximal inhibitory concentrations (IC50 values) for compounds against Haemonchus contortus (Haecon-5 strain) exsheathed third-stage larvae (xL3s). H. contortus were maintained in experimental sheep and procured in accordance with the institutional animal ethics guidelines and the regulations of Australia (permit no. 1714374; University of Melbourne). Immediately prior to use, third-stage larvae (L3s) were exsheathed and sterilised by incubation in 0.15% (v/v) bleach at 38 °C for 20 min, followed by washes in sterile saline at room temperature (22-24 °C). […]

[3] = system: C. neoformans var. grubii strain ATCC 208821; assay: Antimicrobial growth inhibition (CO-ADD), C. neoformans; assay type: cell-based; details: Cryptococcus neoformans, ATCC208821; var. grubii ATCC 208821; read-out: MIC C. neoformans
[4] = system: A. baumannii (G-) strain ATCC 19606; assay: Antimicrobial growth inhibition (CO-ADD), A. baumannii; assay type: cell-based, Acinetobacter baumannii; details: for MIC: Acinetobacter baumannii, ATCC19606, read-out: MIC A. baumannii
Procedure: as §1, §2, §3, §4, §5, §6, §7, §8, §9, §10

[5] = system: P. auruginosa (G-) strain ATCC 27853; assay: Antimicrobial growth inhibition (CO-ADD), P. aeruginosa; assay type: cell-based, Pseudomonas aeruginosa; details: ATCC 27853; for MIC: Pseudomonas aeruginosa, ATCC27853, read-out: MIC P. aeruginosa
Procedure: as §1, §2, §3, §4, §5, §6, §7, §8, §9, §10

[6] = system: E. Coli (G-) strain ATCC 25922; assay: Antimicrobial growth inhibition (CO-ADD), E. coli; assay type: cell-based, Escherichia coli; details: for % inhibition E. coli: 32 µg/mL; for % inhibition E. coli / inhibition at 32 µg/mL: duplicate (n = 2) values; for inhibition at 32 µg/mL / MIC: Escherichia coli; for inhibition at 32 µg/mL: ATCC25922, 32 µg/mL, read-out: % inhibition E. coli; for MIC: ATCC25922, read-out: MIC E. coli
Procedure: as §1, §2, §3, §4, §5, §6, §7, §8, §9, §10

[7] = system: MRSA (G+) strain ATCC 43300; assay: Antimicrobial growth inhibition (CO-ADD), MRSA; assay type: cell-based, Staphylococcus aureus; details: for MIC: Staphylococcus aureus, read-out: MIC MRSA
Procedure: as §1, §2, §3, §4, §5, §6, §7, §8, §9, §10

[8] = Cytotoxicity assay (CO-ADD); assay type: cell-based; details: human, human embryonic kidney cells
[9] = system: C. neoformans var. grubii strain ATCC 208821; assay: Antimicrobial growth inhibition (CO-ADD), C. neoformans; assay type: cell-based, Cryptococcus neoformans; details: duplicate (n = 2) values
Procedure: as §1, §2, §3, §11, §12
as §5, with “Growth inhibition of C. albicans was determined measuring absorbance at 530 nm (OD530), while the growth inhibition of C. neoformans was determined measuring the difference in absorbance between 600 and 570 nm (OD600-570), after the addition of resazurin (0.001% final concentration) and incubation at 35 °C for an additional 2 h.” for “2 h.”
as §6, §7, §8, §9
Dose-response evaluations were carried out to estimate the half-maximal inhibitory concentrations (IC50 values) for compounds against Haemonchus contortus (Haecon-5 strain) exsheathed third-stage larvae (xL3s). H. contortus were maintained in experimental sheep and procured in accordance with the institutional animal ethics guidelines and the […]

[10] = system: Mediterranean fish species Blennius sphinx; set-up: method as in PMID 15018063; details: cited from earlier work
[11] = ATCC 25922, MIC = concentration at which growth inhibited by ≥80%
[12] = 32 µg/mL, duplicate (n = 2) values
[13] = ATCC 43300, MIC = concentration at which growth inhibited by ≥80%, range 0.25−32 µg/mL

| Compound | Haemolysis (HC10) (human red blood cells) | % inhibition K. pneumoniae [1] | MIC ([1]; ATCC 700603) [mg/L] | MIC [2] [mg/L] | MIC [3] [mg/L] | MIC ([4]; ATCC 19606) [mg/L] | MIC [5] [mg/L] | % inhibition E. coli [6] | MIC [6, 11] [mg/L] | MIC [7, 13] [mg/L] | CC50 [8] [mg/L] | also measured |
| --- | --- | --- | --- | --- | --- | --- | --- | --- | --- | --- | --- | --- |
| CC[C@H](C)[C@H](NC(=O)CN)C(=O)NCC(=O)N[C@@H](C)C(=O)N[C@H](C(=O)N[C@@H](CC(C)C)C(=O)N[C@@H](CCCCN)C(=O)N[C@H](C(=O)N[C@@H](CC(C)C)C(=O)N[C@H](C(=O)N[C@H](C(=O)NCC(=O)N[C@@H](CC(C)C)C(=O)N1CCC[C@H]1C(=O)N[C@@H](C)C(=O)N[C@@H](CC(C)C)C(=O)N[C@H](C(=O)N[C@@H](CO)C(=O)N[C@@H](Cc1c[nH]c2ccccc12)C(=O)N[C@H](C(=O)N[C@@H](CCCCN)C(=O)N[C@@H](CCCNC(=N)N)C(=O)N[C@@H](CCCCN)C(=O)N[C@@H](CCCNC(=N)N)C(=O)N[C@@H](CCC(N)=O)C(=O)N[C@@H](CCC(N)=O)C(N)=O)[C@@H](C)CC)[C@@H](C)CC)[C@@H](C)O)[C@@H](C)O)C(C)C)C(C)C [Melittin, reference compound] | Melittin: 2.7 µg/mL | – | – | – | – | – | – | – | – | – | – | – |
| COC(=O)NCCCCNC(=O)C1=NO[C@]2(C=C(Br)C(OC)=C(Br)[C@@H]2O)C1 [Compound 12, subereamolline C] | >32 µg/mL | 14.0% and 5.6% | > 32 | > 32 | > 32 | > 32 | > 32 | 6.4% | > 32 | > 32 | > 32 | inhibition at 32 µg/mL [6]: 12.3%; % inhibition MRSA [7, 12]: 0.4% and 8.2% |
| CN[C@H](CC(C)C)C(=O)N[C@H]1C(=O)N[C@@H](CC(N)=O)C(=O)N[C@H]2C(=O)N[C@H]3C(=O)N[C@H](C(=O)N[C@H](C(=O)O)c4cc(O)cc(O)c4-c4cc3ccc4O)[C@H](O)c3ccc(c(Cl)c3)Oc3cc2cc(c3O[C@@H]2O[C@H](CO)[C@@H](O)[C@H](O)[C@H]2O[C@H]2C[C@](C)(N)[C@H](O)[C@H](C)O2)Oc2ccc(cc2Cl)[C@H]1O [Vancomycin, reference compound] | – | – | – | – | – | – | – | – | – | – | – | MIC [7]: 1 mg/L |
| COC(=O)Cc1c(O)cc(Br)c(O)c1Br [Compound 10, subereaphenol B] | >32 µg/mL | 9.3% | > 32 | > 32 | > 32 | > 32 | > 32 | 15.8% and 6.4% | > 32 | > 32 | > 32 | inhibition at 32 µg/mL [1]: 6.1%; % inhibition C. neoformans ([9]; 32 µg/mL): 8.5%; inhibition at 32 µg/mL ([9]; Cryptococcus neoformans, ATCC208821, 32 µg/mL, read-out: % inhibition C. neoformans): 12.4%; % inhibition A. baumannii [4, 12]: −1.4% and −9.2% |
| COC1(OC)C(Br)=CC(O)(CC#N)C=C1Br [Compound 7, 2-(3,5-dibromo-1-hydroxy-4,4-dimethoxycyclohexa-2,5-dien-1-yl)acetonitrile] | >32 µg/mL | 13.3% | > 32 | > 32 | > 32 | > 32 | > 32 | 6.2% | > 32 | > 32 | > 32 | inhibition at 32 µg/mL [1]: 10.6%; inhibition at 32 µg/mL [6]: 11.2% |
| aplysinamisin-1 [reference compound] | – | – | – | – | – | – | – | – | – | – | – | feeding deterrent activity, Blennius sphinx [10]: significant feeding deterrent activity |
| CC/C(=C(\c1ccccc1)c1ccc(OCCN(C)C)cc1)c1ccccc1 [Tamoxifen, reference compound] | – | – | – | – | – | – | – | – | – | – | 9 (≈ 24.2 µM) | – |
| OC(Cn1cncn1)(Cn1cncn1)c1ccc(F)cc1F [Fluconazole, reference compound] | – | – | – | 0.125 | 8 (≈ 26.1 µM) | – | – | – | – | – | – | – |
| Colistin [reference compound] | – | – | – | – | – | – | – | – | – | – | – | MIC K. pneumoniae ([1]; ATCC 700603): Colistin: 0.25 µg/mL; MIC A. baumannii ([4]; ATCC 19606): Colistin: 0.25 µg/mL; MIC P. aeruginosa [5]: Colistin: 0.25 µg/mL; MIC E. coli [6, 11]: Colistin: 0.125 µg/mL |
